Assay results published in paper PMC4978154, “Phase I metabolites of mephedrone display biological activity as substrates at monoamine transporters” (British Journal of Pharmacology, 2016).
Values joined by “and” are separate entries in the source; they are usually repeats but may differ in a detail not shown here. Identical values can stand only once. Like-named read-outs stand apart in the source and are kept apart here.

Columns and labels:
hDAT = molecular target: T1, hDAT (Homo sapiens, UniProt Q01959); experiment: Transporter uptake inhibition in HEK293 cells expressing hDAT; type: cell-based; conditions: [3H]-MPP+ uptake; for IC50: mean (95% confidence interval)
T1 construct: expressed in transfected cells
Method: (§1) The generation of HEK293 cells stably expressing the human isoforms of DAT (hDAT) and NET (hNET) was carried out as described previously (Scholze et al., 2002). For SERT, the human isoform (hSERT) was cloned in frame with yellow fluorescent protein (Schmid et al., 2001). The generation of a stable cell line was performed as described by Hilber and colleagues (Hilber et al., 2005). HEK293 cells were maintained in humidified atmosphere (5% CO2, 37°C) in DMEM, supplemented with 10% heat‐inactivated FBS and penicillin (100 u 100 mL^−1) and streptomycin (100 μg 100 mL^−1). Selection pressure was maintained by adding geneticin (50 μg·mL^−1) to the cell culture media.
(§2) Uptake experiments were conducted as described previously (Sitte et al., 2001) with minor modifications. In brief, HEK293 cells expressing hDAT, hNET or hSERT were seeded into poly‐D‐lysine (PDL) coated 96‐well plates at a density of 40 000 cells per well. The next day, DMEM was aspirated and replaced with Krebs HEPES buffer (KHB, 25 mM HEPES, 120 mM NaCl, 5 mM KCl, 1.2 mM CaCl2, and 1.2 mM MgSO4, 5 mM D‐glucose, pH adjusted to 7.3 with NaOH) (200 μL per well), and cells were pre‐incubated with various concentrations of mephedrone or its metabolites for 5 min (50 μL per well). Subsequently, 0.1 μM of [^3H]‐5‐HT or 0.02 μM of [^3H]‐MPP^+ were added, and uptake was terminated after 1 (hSERT) or 3 min (hDAT, hNET) by washing the cells with 200 μL of ice‐cold KHB. Cells were lysed with 1% SDS, and tritium uptake was determined by scintillation counting. Nonspecific uptake was determined in the presence of 10 μM paroxetine (hSERT) or 10 μM mazindol (hDAT and hNET).
(§3) Calculations were performed using Microsoft Excel® 2010 (Microsoft Corporation, Redmond, WA, USA) and GRAPHPAD PRISM 5.0. (GraphPad Software Inc., La Jolla, CA, USA). IC50 values for uptake inhibition and EC50 values for release were determined by nonlinear regression fits. Release data expressed as AUC were analysed by one‐way ANOVA followed by Bonferroni's multiple comparison test. Microdialysis and locomotor data were analysed by two‐way ANOVA (drug treatment × time) followed by Bonferroni's test. The effect of monensin treatment on basal efflux of tritiated substrate was analysed with the Mann–Whitney test. P values less than 0.05 (i.e. P < 0.05) were considered significant. The data and statistical analysis comply with the recommendations on experimental design and analysis in pharmacology (Curtis et al., 2015).

hNET = molecular target: T2, hNET (Homo sapiens, UniProt P23975); experiment: Transporter uptake inhibition in HEK293 cells expressing hNET; type: cell-based; conditions: [3H]-MPP+ uptake; for IC50: mean (95% confidence interval)
T2 construct: expressed in transfected cells
Method: as §1, §2
as §3, with “GRAPHPAD” left out

SERT = molecular target: T3, SERT (Rattus norvegicus, UniProt P31652); experiment: Transporter release assay in rat brain synaptosomes, SERT; type: biochemical; conditions: [3H]-5-HT; for EC50: mean (95% confidence interval)
T3 construct: a native tissue preparation that contains plasma membrane transporters in situ; from tissue; host or cells: rat whole brain minus striatum and cerebellum, synaptosomes
Method: The ability of mephedrone and its metabolites to evoke release via DAT, NET and SERT was determined in rat brain synaptosomes as previously described (Baumann et al., 2012). Rats were killed with CO2, decapitated, and brains were rapidly removed and dissected on ice. Synaptosomes were prepared from striatum for DAT assays, whereas synaptosomes were prepared from whole brain minus striatum and cerebellum for the NET and SERT assays. [^3H]‐MPP^+ (9 nM) was used as the radiolabelled substrate for DAT and NET, whereas [^3H]‐5‐HT (5 nM) was used as the radiolabelled substrate for SERT. All buffers used in the release assays contained 1 μM reserpine to block vesicular uptake of substrates. The selectivity of assays was optimized for a single transporter by including unlabelled compounds [nomifensine and 1‐(2‐diphenylmethoxyethyl)‐4‐(3‐phenylpropyl)piperazine dihydrochloride (GBR12935) for SERT; GBR12935 and citalopram for NET; citalopram and desipramine for DAT] to prevent the uptake of [^3H]‐MPP^+ or [^3H]‐5‐HT by competing transporters. Synaptosomes were preloaded with radiolabelled substrate in Krebs‐phosphate buffer, which consisted of 126 mM NaCl, 2.4 mM KCl, 0.5 mM KH2PO4, 1.1 mM CaCl2, 0.83 mM MgCl2, 0.5 mM Na2SO4, 11.1 mM glucose, 13.7 mM Na2HPO4, 1 mg·mL^−1 ascorbic acid and 50 μM pargyline (pH = 7.4) for 1 h (steady state). Assays were initiated by adding 850 μL of preloaded synaptosomes to 150 μL of test drug. Dose–response curves were generated using eight different concentrations of mephedrone, nor‐mephedrone or 4‐OH‐mephedrone. Assays were terminated by vacuum filtration, and retained radioactivity was quantified by liquid scintillation counting.
as §3

[1] = IC50 on uptake mediated by hDAT
[2] = IC50 on uptake mediated by hNET
[3] = EC50 on transporter mediated efflux, SERT

T3 sequence (P31652 whole entry): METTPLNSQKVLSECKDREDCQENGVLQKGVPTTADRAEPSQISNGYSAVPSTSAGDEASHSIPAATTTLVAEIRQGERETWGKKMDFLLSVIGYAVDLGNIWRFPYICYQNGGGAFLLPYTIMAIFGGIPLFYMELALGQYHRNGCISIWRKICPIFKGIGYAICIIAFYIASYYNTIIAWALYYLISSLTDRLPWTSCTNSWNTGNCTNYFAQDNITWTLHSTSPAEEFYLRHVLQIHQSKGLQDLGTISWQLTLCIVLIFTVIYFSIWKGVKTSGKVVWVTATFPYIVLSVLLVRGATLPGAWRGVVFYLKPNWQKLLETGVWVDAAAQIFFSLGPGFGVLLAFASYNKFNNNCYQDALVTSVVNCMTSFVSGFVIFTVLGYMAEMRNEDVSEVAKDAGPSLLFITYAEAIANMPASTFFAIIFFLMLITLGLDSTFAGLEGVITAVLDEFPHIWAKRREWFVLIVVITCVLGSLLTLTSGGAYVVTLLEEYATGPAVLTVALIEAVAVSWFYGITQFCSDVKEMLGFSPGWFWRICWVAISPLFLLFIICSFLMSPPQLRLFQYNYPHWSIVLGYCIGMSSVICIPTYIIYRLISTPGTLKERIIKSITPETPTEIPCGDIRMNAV
T2 sequence (P23975 whole entry): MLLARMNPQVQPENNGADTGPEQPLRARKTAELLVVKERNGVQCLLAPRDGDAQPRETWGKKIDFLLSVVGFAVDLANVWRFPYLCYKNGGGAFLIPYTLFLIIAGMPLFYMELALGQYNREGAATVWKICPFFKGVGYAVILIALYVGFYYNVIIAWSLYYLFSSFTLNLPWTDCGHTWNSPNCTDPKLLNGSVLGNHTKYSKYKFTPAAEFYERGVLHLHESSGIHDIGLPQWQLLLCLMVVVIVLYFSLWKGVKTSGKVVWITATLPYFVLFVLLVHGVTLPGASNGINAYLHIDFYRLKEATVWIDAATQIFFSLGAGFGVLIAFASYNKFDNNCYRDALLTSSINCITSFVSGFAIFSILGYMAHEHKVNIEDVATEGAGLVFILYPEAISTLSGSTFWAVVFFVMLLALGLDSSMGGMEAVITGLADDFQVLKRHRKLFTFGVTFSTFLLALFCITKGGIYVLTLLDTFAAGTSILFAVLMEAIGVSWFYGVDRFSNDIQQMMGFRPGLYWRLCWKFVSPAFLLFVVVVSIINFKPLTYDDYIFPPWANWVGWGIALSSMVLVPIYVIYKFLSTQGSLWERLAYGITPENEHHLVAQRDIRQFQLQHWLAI
T1 sequence (Q01959 whole entry): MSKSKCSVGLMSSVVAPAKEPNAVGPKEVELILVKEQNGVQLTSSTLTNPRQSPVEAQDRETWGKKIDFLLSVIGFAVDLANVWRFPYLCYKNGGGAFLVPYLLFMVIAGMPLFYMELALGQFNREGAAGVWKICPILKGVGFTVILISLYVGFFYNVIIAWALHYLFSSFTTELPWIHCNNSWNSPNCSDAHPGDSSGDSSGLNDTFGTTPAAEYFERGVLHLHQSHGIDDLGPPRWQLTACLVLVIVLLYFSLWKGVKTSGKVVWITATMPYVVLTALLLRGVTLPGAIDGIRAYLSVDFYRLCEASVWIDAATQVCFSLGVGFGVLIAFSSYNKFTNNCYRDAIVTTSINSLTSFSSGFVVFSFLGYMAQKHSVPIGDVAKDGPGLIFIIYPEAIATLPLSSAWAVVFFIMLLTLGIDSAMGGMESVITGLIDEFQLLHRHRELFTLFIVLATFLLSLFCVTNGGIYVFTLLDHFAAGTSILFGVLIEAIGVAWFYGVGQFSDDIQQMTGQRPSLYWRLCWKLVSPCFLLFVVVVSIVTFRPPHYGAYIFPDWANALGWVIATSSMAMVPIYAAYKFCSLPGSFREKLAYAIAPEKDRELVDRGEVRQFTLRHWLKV

Compound	IC50 (hDAT; [1]) [nM]	efficacy of uptake inhibition at hDAT (hDAT)	IC50 (hNET; [2]) [µM]	efficacy of uptake inhibition at hNET (hNET)	EC50 (SERT; [3])	IC50 (hDAT; read-out: IC50 on uptake mediated by hDAT) [nM]	IC50 (hNET; read-out: IC50 on uptake mediated by hNET) [µM]	rightward shift of SERT release curve compared with mephedrone (SERT) [fold]	EC50 (SERT; read-out: EC50 on transporter mediated efflux, SERT)
CNC(C)C(=O)c1ccc(C)cc1.Cl (stereo not shown) [Mephedrone, 2‐Methylamino‐1‐(p‐tolyl)propan‐1‐one hydrochloride]	770	fully efficacious inhibitors of uptake	2.77	fully efficacious inhibitors of uptake	210 nM	–	–	–	–
Cc1ccc(C(=O)C(C)N)cc1.Cl (stereo not shown) [Nor‐mephedrone, 2‐amino‐1‐(p‐tolyl)propan‐1‐one hydrochloride]	6350	fully efficacious inhibitors of uptake	5.46	fully efficacious inhibitors of uptake	200 nM and 210 nM	–	–	–	–
CNC(C)C(=O)c1ccc(CO)cc1.Cl (stereo not shown) [4‐OH‐mephedrone, 1‐(4‐(hydroxymethyl)phenyl)‐2‐(methylamino)propan‐1‐one hydrochloride]	–	fully efficacious inhibitors of uptake	–	fully efficacious inhibitors of uptake	–	2920	4.85	10	2000 nM and 2010 nM
